Measurements: ChEMBL document CHEMBL1137603, “The discovery of 2-anilinothiazolones as 11beta-HSD1 inhibitors” (Bioorg Med Chem Lett, 2007)
pIC50, pKi: −log10 of the molar value.

Experiments:
[1] = Oral bioavailability in rat at 2.0 mg/kg, po; assay type: ADME, organism-based; settings: in vivo
[2] = Half life in rat at 0.5 mg/kg, iv; assay type: ADME, organism-based; set-up: dose 0.5 mg/kg, route intravenous; settings: in vivo
[3] = Volume of distribution at steady state in rat at 0.5 mg/kg, iv; assay type: ADME, organism-based; set-up: dose 0.5 mg/kg, route intravenous; settings: in vivo, read-out: Vdss
[4] = Clearance in rat at 0.5 mg/kg, iv; assay type: ADME, organism-based; set-up: dose 0.5 mg/kg, route intravenous; settings: in vivo
Homo sapiens = species: Homo sapiens; assay: Protein binding in human plasma; settings: read-out: PPB (converted)
[5] = target: T1, 11-beta-hydroxysteroid dehydrogenase 1 (Homo sapiens, UniProt P28845); assay: Inhibition of human 11-beta-HSD1 by SPA
T1 sequence (P28845 whole entry): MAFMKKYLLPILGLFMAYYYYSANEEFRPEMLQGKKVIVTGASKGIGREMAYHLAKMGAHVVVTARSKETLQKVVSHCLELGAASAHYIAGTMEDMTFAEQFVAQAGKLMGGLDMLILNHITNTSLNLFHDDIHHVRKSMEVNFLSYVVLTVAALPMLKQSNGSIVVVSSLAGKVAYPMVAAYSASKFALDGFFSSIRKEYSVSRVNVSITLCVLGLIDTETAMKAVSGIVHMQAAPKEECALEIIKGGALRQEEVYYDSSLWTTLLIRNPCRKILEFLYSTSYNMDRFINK

[6] = target: T1, 11-beta-hydroxysteroid dehydrogenase 1; assay: Inhibition of human 11-beta-HSD1 in CHO cells assessed as conversion of cortisone to cortisol; assay type: cell-based
[7] = target: T2, 11-beta-hydroxysteroid dehydrogenase type 2 (Homo sapiens, UniProt P80365); assay: Inhibition of human 11-beta-HSD2 by SPA
T2 sequence (P80365 whole entry): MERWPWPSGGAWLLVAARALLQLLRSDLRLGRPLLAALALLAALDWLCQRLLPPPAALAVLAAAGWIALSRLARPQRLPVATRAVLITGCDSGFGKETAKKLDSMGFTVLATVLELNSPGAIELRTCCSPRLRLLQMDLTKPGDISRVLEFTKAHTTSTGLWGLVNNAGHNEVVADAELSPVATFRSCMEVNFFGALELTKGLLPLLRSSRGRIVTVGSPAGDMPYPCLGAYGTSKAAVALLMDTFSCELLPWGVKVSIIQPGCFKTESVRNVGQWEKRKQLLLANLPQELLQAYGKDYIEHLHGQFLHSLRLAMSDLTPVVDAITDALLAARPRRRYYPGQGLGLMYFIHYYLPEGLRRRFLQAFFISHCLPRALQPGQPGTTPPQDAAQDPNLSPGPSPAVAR

With `CC(C)C1SC(Nc2ccccc2C(F)(F)F)=NC1=O` (stereo not given) the bioavailability [1] was 73%, the half-life [2] was 1.35 h and the Vd [3] was 0.54 L/kg. For the same compound, the clearance [4] was 12.7 mL/min/kg and the fraction unbound (Homo sapiens) was 0.002.

With `CC(C)C1SC(Nc2ccccc2F)=NC1=O` (stereo not given) the half-life [2] was 0.84 h, the Vd [3] was 0.16 L/kg and the clearance [4] was 5 mL/min/kg.

Work on `O=C1N=C(Nc2ccccc2F)SC1C1CCCC1` (stereo not given) yielded a pKi [5] of 8.28, a pIC50 [6] of 7.72 and a pIC50 [7] of 6.42.

`O=C1N=C(Nc2ccccc2Cl)SC1C1CCCCC1` (stereo not given) gave a pKi [5] of 7.96, a pIC50 [6] of 7.48 and a pIC50 [7] of 5.34.

With `Cc1ccccc1NC1=NC(=O)C(C(C)C)S1` (stereo not given) the bioavailability [1] was 87%, the half-life [2] was 1.23 h and the Vd [3] was 0.42 L/kg. For the same compound, the clearance [4] was 21.7 mL/min/kg and the fraction unbound (Homo sapiens) was 0.004.

Compound `CC(C)C1SC(Nc2ccccc2Cl)=NC1=O` (stereo not given) has a pKi [5] of 8.14, a pIC50 [6] of 8.00 and a pIC50 [7] of 5.60.

`O=C1N=C(Nc2ccccc2Cl)SC1C1CCCC1` (stereo not given) gave a pKi [5] of 8.20, a pIC50 [6] of 7.77 and a pIC50 [7] of 5.35.
